The values below come from patent US12441718B2, “Selective angiotensin II compounds” (VICORE PHARMA AB, priority 2021, dated 2025).

Data set [1] in a line: Metabolic stability in pooled human liver microsomes. The data set is classed as in vitro ADME. Conditions: pooled human liver microsomes 0.5 mg/mL, 1 μM test compound, 37° C., * rows = mean of two runs; for half-life at 1 μM: human, pooled human liver microsomes. As for the experimental part:
Pooled human liver microsomes in PBS at a concentration of 0.5 mg/mL was incubated with or without 1 mM NADPH for 70 min at 37° C. Test compound was added after 10 minutes to a final concentration of 1 μM. Samples were withdrawn at 0, 5, 15 and 60 minutes and added to test tubes containing acetonitrile, to stop the reaction, and with terfenadine, used as internal standard. After centrifugation at 10 000×g for 5 minutes the supernatant was diluted 1:1 with 1% formic acid. Samples were separated on a reverse phase column and detected by triple quadrupole MSMS (Agilant model 6540). The concentration of the parent compound at the different time points was measured with an external standard curve using terfenadine as internal standard and the initial metabolic rate in the presence or absence of NADPH calculated.
In general terms: Microsomes from liver hold many membrane-bound enzymes, among them those of drug oxidation.

Data set [2] concerns the target T1, human recombinant AT2 receptor (Homo sapiens, UniProt P50052).
T1 construct: purchased Eurofins ITEM26 (protocol number)
T1 sequence (P50052 1-363): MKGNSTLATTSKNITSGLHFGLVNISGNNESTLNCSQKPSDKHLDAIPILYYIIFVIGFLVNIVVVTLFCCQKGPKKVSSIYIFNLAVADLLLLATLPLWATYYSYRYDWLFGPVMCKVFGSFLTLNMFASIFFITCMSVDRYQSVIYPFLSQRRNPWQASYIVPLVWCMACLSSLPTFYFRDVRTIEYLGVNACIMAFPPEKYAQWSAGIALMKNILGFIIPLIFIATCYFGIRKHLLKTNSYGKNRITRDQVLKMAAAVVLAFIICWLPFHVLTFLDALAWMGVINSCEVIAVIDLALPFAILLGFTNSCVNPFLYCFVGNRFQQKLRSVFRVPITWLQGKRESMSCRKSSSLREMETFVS
Description: Binding to AT2 receptor, radiometric scintillation assay (Eurofins ITEM26). Particulars: for Ki: seven-point dose-response curve.

Where [3] appears, read: with 1 mM NADPH, read-out: T1/2, + NaDPH.
Where [4] appears, read: without NADPH, read-out: T1/2, no NaDPH.
Where [5] appears, read: ligand 125I CGP 42112A, * rows = mean of runs.
The mark [6] stands for this setting: test compounds at 1, 10, 100 and 1000 nM, ligand 125I CGP 42112A, * rows = mean of runs, read-out: AT2 GraFit IC50.

Values joined by “and” are separate entries in the source; they are usually repeats but may differ in a detail not shown here. Equal entries are not always repeated. Where two headings read alike, the source gives them in different places.

Take `CC(C)Cc1cc(-c2ccc(Cn3ccnc3C(C)(C)C)cc2)c(S(=O)(=O)Nc2ncccn2)s1` [Example 16, 3-(4-((2-(tert-Butyl)-1H-imidazol-1-yl)methyl)phenyl)-5-isobutyl-N-(pyrimidin-2-yl)thiophene-2-sulfonamide]: the half-life at 1 μM in data set [1] (setting [3]) and in data set [1] (setting [4]) was over 1 h throughout.
One may read the Ki as a measure of affinity in units of concentration, obtained from inhibition or displacement. Broadly, the IC50 is the point on the concentration scale where inhibition reaches its midpoint. Take `CC(C)Cc1ccc(S(=O)(=O)Nc2ccsn2)c(-c2ccc(Cn3ccnc3C(C)(C)C)cc2)c1` [Example 33, 4′-((2-(tert-Butyl)-1H-imidazol-1-yl)methyl)-5-isobutyl-N-(isothiazol-3-yl)-[1,1′-biphenyl]-2-sulfonamide]: the half-life at 1 μM was 0.2 h in data set [1] (setting [3]) and over 1 h in data set [1] (setting [4]). Further, the “T1/2, + NaDPH” value in data set [1] (with 1 mM NADPH) stood at 0.217 h; in data set [1] (with 1 mM NADPH, listed as Example 33*) it was 0.208 h. The Ki in data set [2] (setting [5]) is 1.13 nM and 7.18 nM and 4.16 nM. Moreover, in data set [2] (setting [6]), the IC50 is 2.25 nM and 14.4 nM and 8.33 nM.
For `CCc1nccn1Cc1ccc(-c2cc(CC(C)C)ccc2S(=O)(=O)Nc2ncccn2)cc1` [Example 40, 4′-((2-Ethyl-1H-imidazol-1-yl)methyl)-5-isobutyl-N-(pyrimidin-2-yl)-[1,1′-biphenyl]-2-sulfonamide], the half-life at 1 μM was 0.75 h in data set [1] (setting [3]) and over 1 h in data set [1] (setting [4]).
As to `CC(C)Cc1cc(-c2ccc(Cn3ccnc3C3CC3)cc2)c(S(=O)(=O)Nc2ncccn2)s1` [Example 52, 3-(4-((2-Cyclopropyl-1H-imidazol-1-yl)methyl)phenyl)-5-isobutyl-N-(pyrimidin-2-yl)thiophene-2-sulfonamide], the half-life at 1 μM in data set [1] (setting [3]) and in data set [1] (setting [4]) was over 1 h throughout. Further, the Ki in data set [2] (setting [5]) turned out to be 0.77 nM. Also, in data set [2] (setting [6]), the IC50 came to 1.53 nM.
On to `CC(C)Cc1ccc(S(=O)(=O)Nc2ncccn2)c(-c2ccc(Cn3ccnc3C3CC3)cc2)c1` [Example 41, 4′-((2-Cyclopropyl-1H-imidazol-1-yl)methyl)-5-isobutyl-N-(pyrimidin-2-yl)-[1,1′-biphenyl]-2-sulfonamide], for which the half-life at 1 μM in data set [1] (setting [3]) and in data set [1] (setting [4]) was over 1 h throughout.
For the molecule `CC(C)Cc1ccc(S(=O)(=O)Nc2ncccn2)c(-c2ccc(Cn3ccnc3C(C)C)cc2)c1` [Example 39, 5-Isobutyl-4′-((2-isopropyl-1H-imidazol-1-yl)methyl)-N-(pyrimidin-2-yl)-[1,1′-biphenyl]-2-sulfonamide], the results for the half-life at 1 μM in data set [1] (setting [3]) and in data set [1] (setting [4]) were 0.95 h and over 1 h, respectively.
For `CC(C)Cc1ccc(S(=O)(=O)Nc2ncccn2)c(-c2ccc(Cn3ccnc3C(C)(C)C)cc2)c1` [Example 17, 4′-((2-(tert-Butyl)-1H-imidazol-1-yl)methyl)-5-isobutyl-N-(pyrimidin-2-yl)-[1,1′-biphenyl]-2-sulfonamide], the half-life at 1 μM in data set [1] (setting [3]) and in data set [1] (setting [4]) was over 1 h throughout.
On to `CC(C)Cc1cc(-c2ccc(Cn3ccnc3)c(F)c2)c(S(=O)(=O)Nc2ncccn2)s1` [Example 48, 3-(4-((1H-Imidazol-1-yl)methyl)-3-fluorophenyl)-5-isobutyl-N-(pyrimidin-2-yl)thiophene-2-sulfonamide], for which the half-life at 1 μM in data set [1] (setting [3]) and in data set [1] (setting [4]) was over 1 h throughout.
For the molecule `Cc1nccn1Cc1ccc(-c2cc(CC(C)C)ccc2S(=O)(=O)Nc2ncccn2)cc1F` [Example 53, Potassium ((3′-fluoro-5-isobutyl-4′-((2-methyl-1H-imidazol-1-yl)methyl)-[1,1′-biphenyl]-2-yl)sulfonyl)(pyrimidin-2-yl)amide], the IC50 in data set [2] (AT2 GraFit IC50, value in parentheses after <0.3, value printed in parentheses behind the bound <0.3) is 0.25 nM; in data set [2] (setting [6]) it was under 0.3 nM.
Turning to `COc1cnc(NS(=O)(=O)c2ccc(CC(C)C)cc2-c2ccc(Cn3ccnc3C(C)(C)C)cc2)nc1` [Example 36, 4′-((2-(tert-Butyl)-1H-imidazol-1-yl)methyl)-5-isobutyl-N-(5-methoxypyrimidin-2-yl)-[1,1′-biphenyl]-2-sulfonamide], the half-life at 1 μM was 0.7 h in data set [1] (setting [3]) and over 1 h in data set [1] (setting [4]). For the same molecule, the Ki in data set [2] (setting [5]) amounted to 5.99 nM. Further, the 50% inhibitory concentration (IC50) in data set [2] (setting [6]) amounted to 12 nM.
For `CC(C)Cc1ccc(S(=O)(=O)Nc2ncccn2)c(-c2ccc(Cn3ccnc3)cc2)c1` [Example 38, 4′-((1H-Imidazol-1-yl)methyl)-5-isobutyl-N-(pyrimidin-2-yl)-[1,1′-biphenyl]-2-sulfonamide], in that order: 0.967 h, over 1 h, 1.38 nM and 2.76 nM.
`CC(C)Cc1cc(-c2ccc(Cn3ccnc3C(C)(C)C)c(F)c2)c(S(=O)(=O)Nc2ncccn2)s1` [Example 43, 3-(4-((2-(tert-Butyl)-1H-imidazol-1-yl)methyl)-3-fluorophenyl)-5-isobutyl-N-(pyrimidin-2-yl)thiophene-2-sulfonamide]: the half-life at 1 μM in data set [1] (setting [3]) and in data set [1] (setting [4]) was over 1 h throughout. For the same molecule, the Ki in data set [2] (setting [5]) amounted to 0.3 nM. The IC50 in data set [2] (setting [6]) was 0.6 nM.
Consider `CC(C)Cc1cc(-c2ccc(Cn3ccnc3C(C)C)c(F)c2)c(S(=O)(=O)Nc2ncccn2)s1` [Example 46, 3-(3-Fluoro-4-((2-isopropyl-1H-imidazol-1-yl)methyl)phenyl)-5-isobutyl-N-(pyrimidin-2-yl)thiophene-2-sulfonamide], for which the half-life at 1 μM in data set [1] (setting [3]) and in data set [1] (setting [4]) was over 1 h each time. Moreover, the Ki in data set [2] (setting [5]) came to 0.33 nM. Moreover, the IC50 in data set [2] (setting [6]) is 0.65 nM.
For `CC(C)Cc1ccc(S(=O)(=O)Nc2ncccn2)c(-c2ccc(Cn3ccnc3C(C)(C)O)cc2)c1` [Example 15, 4′-((2-(2-Hydroxypropan-2-yl)-1H-imidazol-1-yl)methyl)-5-isobutyl-N-(pyrimidin-2-yl)-[1,1′-biphenyl]-2-sulfonamide], the half-life at 1 μM in data set [1] (setting [3]) and in data set [1] (setting [4]) was over 1 h in each case.
Turning to `Cc1nccn1Cc1ccc(-c2cc(CC(C)C)ccc2S(=O)(=O)Nc2ncccn2)cc1` [Example 37, 5-Isobutyl-4′-((2-methyl-1H-imidazol-1-yl)methyl)-N-(pyrimidin-2-yl)-[1,1′-biphenyl]-2-sulfonamide], the half-life at 1 μM in data set [1] (setting [3]) and in data set [1] (setting [4]) was over 1 h throughout. Further, the Ki in data set [2] (setting [5]) is 0.58 nM. The IC50 in data set [2] (setting [6]) is 1.16 nM.
Take `COc1cc(NS(=O)(=O)c2ccc(CC(C)C)cc2-c2ccc(Cn3ccnc3C(C)(C)C)cc2)nc(OC)n1` [Example 34, 4′-((2-(tert-Butyl)-1H-imidazol-1-yl)methyl)-N-(2,6-dimethoxypyrimidin-4-yl)-5-isobutyl-[1,1′-biphenyl]-2-sulfonamide]: the half-life at 1 μM is 0.283 h in data set [1] (setting [3]) and over 1 h in data set [1] (setting [4]). Besides, the “T1/2, + NaDPH” value in data set [1] (with 1 mM NADPH) is 0.183 h; in data set [1] (with 1 mM NADPH, listed as Example 34*), 0.233 h. Moreover, the Ki in data set [2] (setting [5]) is 38.3 nM and 24.5 nM and 31.4 nM. The IC50 in data set [2] (setting [6]) is 76.6 nM and 49 nM and 62.8 nM.
Regarding `CC(C)Cc1ccc(S(=O)(=O)Nc2ncccn2)c(-c2ccc(Cn3ccnc3C3CC3)c(F)c2)c1` [Example 42, 4′-((2-Cyclopropyl-1H-imidazol-1-yl)methyl)-3′-fluoro-5-isobutyl-N-(pyrimidin-2-yl)-[1,1′-biphenyl]-2-sulfonamide], the half-life at 1 μM in data set [1] (setting [3]) and in data set [1] (setting [4]) was over 1 h each time.
In the case of `COc1cnc(NS(=O)(=O)c2ccc(CC(C)C)cc2-c2ccc(Cn3ccnc3C(C)(C)C)c(F)c2)nc1` [Example 31, 4′-((2-(tert-Butyl)-1H-imidazol-1-yl)methyl)-3′-fluoro-5-isobutyl-N-(5-methoxy-pyrimidin-2-yl)-[1,1′-biphenyl]-2-sulfonamide], the half-life at 1 μM is 0.783 h in data set [1] (setting [3]) and over 1 h in data set [1] (setting [4]). For the same molecule, the “T1/2, + NaDPH” value was 0.583 h in data set [1] (with 1 mM NADPH) and 0.683 h in data set [1] (with 1 mM NADPH, listed as Example 31*). The Ki in data set [2] (setting [5]) is 1.21 nM and 1.84 nM and 1.53 nM. The IC50 in data set [2] (setting [6]) is 2.43 nM and 3.68 nM and 3.06 nM.
